Measurements: PMC9699427 (Viruses, 2022)

Experiments:
HIV-1IIIB [1] = test: Anti-HIV-1 activity, syncytia (CPE) count in C8166 cells; assay type: cell-based; conditions: Human immunodeficiency virus 1
HIV-1IIIB [2] = test: Anti-HIV-1 activity, MTT protection of MT-4 cells; assay type: cell-based; conditions: Human immunodeficiency virus 1, MT4, MT-4, MTT
CYP2D6 = CYP2D6 (Homo sapiens, UniProt P10635); test: Cytochrome P450 inhibition, human liver microsomes, dextromethorphan
[3] = Cytotoxicity, MTT assay, MT-4 cells; assay type: cell-based; conditions: human, three days, read-out: CC50 (Mean ± SD)
HIV-1Yu-2(G140S/Q148H) = test: microbe, parasite or virus in culture; assay type: cell-based; conditions: Human immunodeficiency virus 1, TZM-bl

Sequence of CYP2D6 (P10635 whole entry): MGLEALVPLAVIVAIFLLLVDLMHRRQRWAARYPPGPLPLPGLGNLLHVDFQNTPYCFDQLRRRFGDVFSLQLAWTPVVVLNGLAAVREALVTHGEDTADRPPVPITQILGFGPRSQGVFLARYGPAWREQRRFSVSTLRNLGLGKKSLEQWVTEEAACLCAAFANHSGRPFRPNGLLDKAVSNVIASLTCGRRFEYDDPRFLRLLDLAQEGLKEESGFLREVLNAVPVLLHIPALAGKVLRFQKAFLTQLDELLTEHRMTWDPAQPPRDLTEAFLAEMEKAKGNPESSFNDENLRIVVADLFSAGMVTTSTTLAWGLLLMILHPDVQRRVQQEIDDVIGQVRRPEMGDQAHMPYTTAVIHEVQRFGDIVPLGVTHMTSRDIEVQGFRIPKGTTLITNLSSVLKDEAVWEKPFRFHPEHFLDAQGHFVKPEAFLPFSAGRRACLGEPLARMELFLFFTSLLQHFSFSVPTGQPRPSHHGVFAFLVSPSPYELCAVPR

Cc1cc(C#N)cc(C)c1Oc1nc(NC2CCN(Cc3ccc(S(N)(=O)=O)cc3)CC2)nc2ccsc12 [K-5a2]
EC50 (HIV-1IIIB [1]): 1.88 ± 0.87 nM | EC50 (HIV-1IIIB [2]): 1.74 ± 0.11 nM | IC50 (CYP2D6): > 50000 nM | CC50 at 3 days [3]: 26600 ± 2030 nM | EC50 (HIV-1Yu-2(G140S/Q148H)): 0.26 ± 0.28 nM
